Experimental data taken from patent US9834820B2, “Methods for the treatment and diagnosis of bone mineral density related diseases” (INSERM (Institut National de la Sante et de la Recherche …, priority 2007, dated 2017).
“Also recorded” adds a separate entry of the source.

Key:
[1] = tested on: RANKL expression in primary cultured osteoblasts; assay: real-time quantitative PCR of RANKL mRNA in primary cultured osteoblasts; assay type: cell-based, human; settings: for RANKL mRNA levels (in words): osteoblasts, FIG. 2b
Procedure: (§1) Human normal cranial suture were obtained after signed informed consent during routine surgery for craniosynostosis. Osteoblasts were cultured in Dulbecco's modified Eagle medium (with 10% fetal bovine serum) as described elsewhere (De Pollack, C. et al. 1996). […] Cells were harvested at day 3. Real-time quantitative PCR using Light Cycler technology (Roche Manheim) was performed for OPG and RANKL mRNA in each sample. The experiments were performed five times. In each experiment, samples were run in triplicate. The amounts of OPG and RANKL mRNA were normalized to the amount of β-actin mRNA. Student test was used for p values determination.

[2] = tested on: OPG expression in primary cultured osteoblasts; assay: real-time quantitative PCR of OPG mRNA in primary cultured osteoblasts; assay type: cell-based, human; settings: for OPG expression compared to control values: p<0.005; for OPG mRNA levels (in words): osteoblasts, FIG. 2b
Procedure: as §1

[3] = tested on: TXAS; settings: read-out: IC50 as selective inhibitor of TXAS; cited from earlier work

| Structure (SMILES) | RANKL expression compared to control values ([1]; Ozagrel 0.25 μM added daily during 3 days, normalized to β-actin mRNA, p<0.005) [%] | RANKL mRNA levels (in words) [1] | OPG expression compared to control values ([2]; Ozagrel 0.25 μM added daily during 3 days, normalized to β-actin mRNA) | OPG mRNA levels (in words) [2] | IC50 [3] [µM] | RANKL expression compared to control values ([1]; CTA2 5 μM added at day one, harvested day 3, p<0.005) | RANKL expression compared to control values ([1]; CTA2 15 μM added at day one, harvested day 3, p<0.03) | OPG expression compared to control values ([2]; CTA2 5 μM added at day one, harvested day 3) [%] | OPG expression compared to control values ([2]; CTA2 15 μM added at day one, harvested day 3) [%] |
| --- | --- | --- | --- | --- | --- | --- | --- | --- | --- |
| O=C(O)/C=C/c1ccc(Cn2ccnc2)cc1 [Ozagrel] | −78 | diminution | +50% | augmentation | 0.011 | – | – | – | – |
| CCCCC[C@H](O)/C=C/[C@H]1CC2CC(C2)[C@@H]1C/C=C\CCCC(=O)O [CTA2] | – | augmentation; also recorded: increased | – | diminution; also recorded: decreased | – | +94% | +471% | −40 | −53 |
